Test results as given in patent US6509318B1, “TGF-B inhibitors and methods” (The Regents of the University of California, priority 2000, dated 2003).
Non-standard residues stand in square brackets, D forms with d. No end group written: not given here.

Assays:
[1] = test system: mink lung epithelium MV-1-Lu cells; assay: DNA synthesis (3H-thymidine incorporation) in MV-1-Lu cells, additions alone; format: cell-based; conditions: for 3H-Thymidine Incorporation 10^3 d.p.m. ± S.D.: 24 h; for (+/−) % change over control when CITA is present / (+/−) % change over control with TGF β-1: vs control (no additions)
From the text: (§1) Inhibition of TGF β-1 Activity by CITAs: We have used a standardized in vitro assay for TGF β-1 as a test for the biological activity of CITAs. Our test is based on inhibiting the effect of TGF β-1 on a test cell proliferation system. In this assay, mink lung epithelium MV-1-Lu cells are exposed to TGF β-1. […] The decrease in DNA synthesis can be monitored by measuring the incorporation of labeled precursors in DNA. The incorporation of ^3H-thymidine in DNA in MV-1-Lu cells are used as a measure of cell proliferation. […] These concentrations of TGF β-1 were based on the amounts of TGF β-1 found in normal serum and in serum from patients with peritonitis, an inflammatory disease. The normal amount of TGF β-1 in human serum is approximately 2 nM (39 pG/ml). In patients with peritonitis, the amount increases to nearly 10 nM (169-216 pG/ml). The incorporation of ^3H-thymidine in the absence of TGF β-1 served as the control. To test the anti-TGF β-1 activity of CITAs, the cells were exposed to 1 nM, 10 nM, and 100 nM CITA-I, CITA-II, and CITA-III in the absence and in the presence of 5.0 nM and 10.0 nM TGF β-1.
(§2) Details of Experimental Procedures: 10^4 MV-1-Lu were plated in each well of a 12 well plate in 2.0 ml minimum essential medium containing non-essential amino acids (MEM) and 10% fetal bovine serum. After 24 hours, the medium was placed with serum free MEM and the cells were further cultured for two hours before the medium was placed with serum free MEM containing the test additives. After exposure to the test medium for 24 hours, the cells were pulse labeled for two hours with 0.5 μCi (methyl-^3H)-thymidine, (specific activity 60 Ci/mmol). After pulse labeling, the radioactive medium was removed, and the cells were washed 1× with 10% trichloracetic acid (TCA), 2× with 5% TCA, then 2× with phosphate buffered saline containing 50 μg/ml non-radioactive thymidine. The wash solutions were monitored to establish that no further unbound radioactive thymidine remained. The washed cell layers were dissolved in 1 ml 0.1 N NaOH containing 1% sodium dodecyl sulfate. The radioactivity in the solution was measured in a scintillation counter and expressed as disintegrations per minute (d.p.m.). Each test was carried out in quadruplicate, and the data presented as mean±standard deviation.

[2] = test system: TGF β-1; assay: Inhibition of TGF β-1 activity by CITAs: reversal of TGF β-1 inhibition of DNA synthesis in MV-1-Lu cells; format: cell-based; conditions: for 3H-Thymidine Incorporation 10^3 d.p.m. ± S.D.: 24 h; for (+/−) % change over control when CITA is present: vs control (no additions)
From the text: as §1, §2

Substance: Leu-Phe-Ala-Pro-D-Glu-Ala (LFAP[dE]A) [CITA-III]
- 3H-Thymidine Incorporation 10^3 d.p.m. ± S.D. ([1]; CITA 1 nM alone, no TGF β-1, MV-1-Lu cells): 44.67 ± 2.26 10^3 d.p.m.
- (+/−) % change over control when CITA is present ([1]; CITA 1 nM alone, no TGF β-1): −23%
- 3H-Thymidine Incorporation 10^3 d.p.m. ± S.D. ([1]; CITA 10 nM alone, no TGF β-1, MV-1-Lu cells): 47.19 ± 3.00 10^3 d.p.m.
- (+/−) % change over control when CITA is present ([1]; CITA 10 nM alone, no TGF β-1): −18%
- 3H-Thymidine Incorporation 10^3 d.p.m. ± S.D. ([1]; CITA 100 nM alone, no TGF β-1, MV-1-Lu cells): 44.36 ± 1.76 10^3 d.p.m.
- (+/−) % change over control when CITA is present ([1]; CITA 100 nM alone, no TGF β-1): −23%
- decrease of DNA synthesis against the control ([1]; CITA alone, all concentrations examined (1, 10, 100 nM)): approximately 20%
- DNA synthesis restored, relative to the level seen with TGF β-1 ([2]; MV-1-Lu cells exposed to 5 nM TGF β-1, all concentrations of CITAs): 2 ×
- reversal of the inhibition of DNA synthesis caused by TGF β-1 ([2]; MV-1-Lu cells, TGF β-1 5 nM and 10 nM): markedly reversed the inhibition of DNA synthesis
- % Increase over TGF β-1. TGF β-1 + CITA/TGF β-1 × 100 ([2]; TGF β-1 5 nM + CITA 1 nM, relative to TGF β-1 5 nM alone): 207%
- 3H-Thymidine Incorporation 10^3 d.p.m. ± S.D. ([2]; TGF β-1 5 nM + CITA 1 nM, MV-1-Lu cells): 34.00 ± 0.86 10^3 d.p.m.
- (+/−) % change over control when CITA is present ([2]; TGF β-1 5 nM + CITA 1 nM): −41%
- % Increase over TGF β-1. TGF β-1 + CITA/TGF β-1 × 100 ([2]; TGF β-1 5 nM + CITA 10 nM, relative to TGF β-1 5 nM alone): 207%
- 3H-Thymidine Incorporation 10^3 d.p.m. ± S.D. ([2]; TGF β-1 5 nM + CITA 10 nM, MV-1-Lu cells): 34.03 ± 1.11 10^3 d.p.m.
- (+/−) % change over control when CITA is present ([2]; TGF β-1 5 nM + CITA 10 nM): −41%
- % Increase over TGF β-1. TGF β-1 + CITA/TGF β-1 × 100 ([2]; TGF β-1 5 nM + CITA 100 nM, relative to TGF β-1 5 nM alone): 184%
- 3H-Thymidine Incorporation 10^3 d.p.m. ± S.D. ([2]; TGF β-1 5 nM + CITA 100 nM, MV-1-Lu cells): 30.23 ± 1.69 10^3 d.p.m.
- (+/−) % change over control when CITA is present ([2]; TGF β-1 5 nM + CITA 100 nM): −48%
- % Increase over TGF β-1. TGF β-1 + CITA/TGF β-1 × 100 ([2]; TGF β-1 10 nM + CITA 1 nM, relative to TGF β-1 10 nM alone): 1275%
- 3H-Thymidine Incorporation 10^3 d.p.m. ± S.D. ([2]; TGF β-1 10 nM + CITA 1 nM, MV-1-Lu cells): 24.36 ± 1.14 10^3 d.p.m.
- (+/−) % change over control when CITA is present ([2]; TGF β-1 10 nM + CITA 1 nM): −58%
- % Increase over TGF β-1. TGF β-1 + CITA/TGF β-1 × 100 ([2]; TGF β-1 10 nM + CITA 10 nM, relative to TGF β-1 10 nM alone): 997%
- 3H-Thymidine Incorporation 10^3 d.p.m. ± S.D. ([2]; TGF β-1 10 nM + CITA 10 nM, MV-1-Lu cells): 19.04 ± 1.47 10^3 d.p.m.
- (+/−) % change over control when CITA is present ([2]; TGF β-1 10 nM + CITA 10 nM): −67%
- % Increase over TGF β-1. TGF β-1 + CITA/TGF β-1 × 100 ([2]; TGF β-1 10 nM + CITA 100 nM, relative to TGF β-1 10 nM alone): 907%
- 3H-Thymidine Incorporation 10^3 d.p.m. ± S.D. ([2]; TGF β-1 10 nM + CITA 100 nM, MV-1-Lu cells): 17.32 ± 0.27 10^3 d.p.m.
- (+/−) % change over control when CITA is present ([2]; TGF β-1 10 nM + CITA 100 nM): −70%

Substance: TGF β-1: transforming growth factor β-1, growth factor protein used to inhibit DNA synthesis of MV-1-Lu cells
- 3H-Thymidine Incorporation 10^3 d.p.m. ± S.D. ([1]; TGF β-1 5 nM alone, MV-1-Lu cells): 16.43 ± 2.95 10^3 d.p.m.
- (+/−) % change over control with TGF β-1 ([1]; TGF β-1 5 nM alone): −72%
- decrease of DNA synthesis ([1]; TGF β-1 5.0 nM, MV-1-Lu cells): approximately 70%
- 3H-Thymidine Incorporation 10^3 d.p.m. ± S.D. ([1]; TGF β-1 10 nM alone, MV-1-Lu cells): 1.91 ± 0.08 10^3 d.p.m.
- (+/−) % change over control with TGF β-1 ([1]; TGF β-1 10 nM alone): −97%
- inhibition of DNA synthesis ([1]; TGF β-1 10 nM, MV-1-Lu cells): ~97%
